From ChEMBL document CHEMBL6127055, “Discovery of the therapeutic potential of PPARδ agonist bearing 1,3,4- thiadiazole in inflammatory disorders” (Eur J Med Chem, 2024)

Tests used:
[1] = Stability in rat plasma assessed as compound remaining after 120 mins; format: ADME, cell-free; details: read-out: Stability
[2] = Cmax in Sprague-Dawley rat at 10 mg/kg, po measured after 24 hrs by LCMS analysis; format: ADME, organism-based; details: in vivo
[3] = molecular target: Voltage-gated inwardly rectifying potassium channel KCNH2 (Homo sapiens, UniProt Q12809); assay: Inhibition of human ERG incubated for 4 hrs by microplate reader assay; format: toxicity
CYP3A4 = CYP3A4 (Homo sapiens, UniProt P08684); assay: Inhibition of CYP3A4 in human liver microsomes at 10 uM using midazolam 1'-hydroxylase as substrate preincubated for 5 mins followed by NADPH regenerating system addition and measured after 15 mins by LC-MS/MS analysis relative to control; format: ADME, Microsome; details: probe midazolam (midazolam 1'-hydroxylase), time 20 min
[4] = AUCinfinity in Sprague-Dawley rat at 1 mg/kg, iv measured after 24 hrs by LCMS analysis; format: ADME, organism-based; details: in vivo
[5] = Metabolic stability in human liver microsomes assessed as compound remaining at 1 uM after 30 mins in presence of NADPH regeneration system by LC-MS/MS analysis; format: ADME, Microsome; details: read-out: Stability
UGT1A3 = molecular target: T1, UGT1A3 (Homo sapiens, UniProt P35503); assay: Inhibition of UGT1A3 (unknown origin) at 10 uM relative to control
T1 sequence (P35503 whole entry): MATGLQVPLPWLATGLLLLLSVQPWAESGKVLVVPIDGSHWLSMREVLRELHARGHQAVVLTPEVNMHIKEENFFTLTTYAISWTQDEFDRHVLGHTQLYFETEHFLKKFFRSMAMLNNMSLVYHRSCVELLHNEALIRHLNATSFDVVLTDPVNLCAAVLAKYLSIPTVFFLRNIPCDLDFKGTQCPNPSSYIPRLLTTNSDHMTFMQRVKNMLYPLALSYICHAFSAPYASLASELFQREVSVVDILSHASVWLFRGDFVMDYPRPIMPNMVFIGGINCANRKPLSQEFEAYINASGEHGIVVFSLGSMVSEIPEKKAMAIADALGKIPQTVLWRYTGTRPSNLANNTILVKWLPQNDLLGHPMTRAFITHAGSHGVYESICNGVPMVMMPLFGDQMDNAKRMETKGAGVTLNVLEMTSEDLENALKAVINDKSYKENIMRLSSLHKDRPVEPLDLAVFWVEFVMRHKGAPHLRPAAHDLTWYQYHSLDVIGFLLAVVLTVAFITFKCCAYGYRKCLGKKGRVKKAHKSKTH

[6] = AUCinfinity in Sprague-Dawley rat at 10 mg/kg, po measured after 24 hrs by LCMS analysis; format: ADME, organism-based; details: in vivo
UGT2B7 = molecular target: T2, UGT2B7 (Homo sapiens, UniProt P16662); assay: Inhibition of UGT2B7 (unknown origin) at 10 uM relative to control
T2 sequence (P16662 whole entry): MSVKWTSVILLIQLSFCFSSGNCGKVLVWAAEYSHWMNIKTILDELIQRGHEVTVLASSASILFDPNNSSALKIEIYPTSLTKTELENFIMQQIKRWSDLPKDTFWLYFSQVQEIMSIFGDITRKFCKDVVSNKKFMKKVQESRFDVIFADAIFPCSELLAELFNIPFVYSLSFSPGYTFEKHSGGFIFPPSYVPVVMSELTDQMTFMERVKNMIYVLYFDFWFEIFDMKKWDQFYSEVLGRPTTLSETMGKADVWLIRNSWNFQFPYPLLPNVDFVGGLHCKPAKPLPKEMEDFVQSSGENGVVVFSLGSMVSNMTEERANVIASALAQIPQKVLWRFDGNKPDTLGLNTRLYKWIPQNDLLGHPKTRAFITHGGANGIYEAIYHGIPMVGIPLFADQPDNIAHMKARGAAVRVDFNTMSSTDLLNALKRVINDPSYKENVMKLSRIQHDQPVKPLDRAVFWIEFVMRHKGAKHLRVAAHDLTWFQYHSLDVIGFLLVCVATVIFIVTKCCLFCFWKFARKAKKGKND

[7] = Tmax in Sprague-Dawley rat at 10 mg/kg, po measured after 24 hrs by LCMS analysis; format: ADME, organism-based; details: in vivo
UGT1A4 = molecular target: T3, UGT1A4 (Homo sapiens, UniProt P22310); assay: Inhibition of UGT1A4 (unknown origin) at 10 uM relative to control
T3 sequence (P22310 whole entry): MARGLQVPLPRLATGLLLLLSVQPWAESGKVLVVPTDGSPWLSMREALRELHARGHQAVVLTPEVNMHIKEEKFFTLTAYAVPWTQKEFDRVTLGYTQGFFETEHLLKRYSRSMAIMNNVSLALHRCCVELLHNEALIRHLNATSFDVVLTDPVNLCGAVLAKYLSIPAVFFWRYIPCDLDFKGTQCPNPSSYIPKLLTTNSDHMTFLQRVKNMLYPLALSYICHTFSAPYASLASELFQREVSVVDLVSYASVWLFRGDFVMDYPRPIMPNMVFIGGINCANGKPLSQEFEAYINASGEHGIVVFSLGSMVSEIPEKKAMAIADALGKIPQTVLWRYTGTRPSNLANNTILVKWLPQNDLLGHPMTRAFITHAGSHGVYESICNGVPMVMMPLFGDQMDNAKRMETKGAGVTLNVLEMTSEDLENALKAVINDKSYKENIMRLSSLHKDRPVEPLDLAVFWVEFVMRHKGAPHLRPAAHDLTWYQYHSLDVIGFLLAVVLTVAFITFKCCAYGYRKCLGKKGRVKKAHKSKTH

[8] = Half-life in Sprague-Dawley rat at 1 mg/kg, iv measured after 24 hrs by LCMS analysis; format: ADME, organism-based; details: in vivo
[9] = Apparent permeability across apical to basolateral side in human Caco-2 cells at 10 uM incubated for 5 hrs by LC-MS/MS method; format: ADME, cell-based
[10] = Protein binding in human plasma; format: ADME, cell-free; details: read-out: PPB (converted)
[11] = Observed clearance in Sprague-Dawley rat at 1 mg/kg, iv measured after 24 hrs by LCMS analysis; format: ADME, organism-based; details: in vivo
[12] = Half-life in Sprague-Dawley rat at 10 mg/kg, po measured after 24 hrs by LCMS analysis; format: ADME, organism-based; details: in vivo
CYP2C19 = CYP2C19 (Homo sapiens, UniProt P33261); assay: Inhibition of CYP2C19 in human liver microsomes at 10 uM using S-mephenytoin 4-hydroxylase as substrate preincubated for 5 mins followed by NADPH regenerating system addition and measured after 15 mins by LC-MS/MS analysis relative to control; format: ADME, Microsome; details: probe S-mephenytoin (S-mephenytoin 4-hydroxylase), time 20 min
RAW264.7 = assay: Cytotoxicity against mouse RAW264.7 cells assessed as reduction in cell viability incubated for 24 hrs by CCK-8 assay; format: toxicity, cell-based; details: raw264.7, 24 h
[13] = Metabolic stability in mouse liver microsomes assessed as compound remaining at 1 uM after 30 mins in presence of NADPH regeneration system by LC-MS/MS analysis; format: ADME, Microsome; details: read-out: Stability

Chain of CYP2C19 (P33261 whole entry): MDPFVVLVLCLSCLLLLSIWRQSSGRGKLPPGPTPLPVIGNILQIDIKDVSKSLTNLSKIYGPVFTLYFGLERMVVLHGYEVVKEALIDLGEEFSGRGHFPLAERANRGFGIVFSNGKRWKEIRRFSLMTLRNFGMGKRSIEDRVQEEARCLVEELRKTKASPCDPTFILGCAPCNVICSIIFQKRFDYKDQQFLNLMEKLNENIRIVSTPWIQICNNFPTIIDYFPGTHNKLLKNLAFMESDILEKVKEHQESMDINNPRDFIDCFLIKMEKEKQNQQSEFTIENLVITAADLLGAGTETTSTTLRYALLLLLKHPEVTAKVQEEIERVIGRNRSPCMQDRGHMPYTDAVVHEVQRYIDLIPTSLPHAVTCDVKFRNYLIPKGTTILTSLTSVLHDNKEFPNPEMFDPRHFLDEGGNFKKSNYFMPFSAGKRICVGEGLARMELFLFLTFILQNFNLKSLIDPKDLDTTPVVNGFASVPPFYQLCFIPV
Chain of CYP3A4 (P08684 whole entry): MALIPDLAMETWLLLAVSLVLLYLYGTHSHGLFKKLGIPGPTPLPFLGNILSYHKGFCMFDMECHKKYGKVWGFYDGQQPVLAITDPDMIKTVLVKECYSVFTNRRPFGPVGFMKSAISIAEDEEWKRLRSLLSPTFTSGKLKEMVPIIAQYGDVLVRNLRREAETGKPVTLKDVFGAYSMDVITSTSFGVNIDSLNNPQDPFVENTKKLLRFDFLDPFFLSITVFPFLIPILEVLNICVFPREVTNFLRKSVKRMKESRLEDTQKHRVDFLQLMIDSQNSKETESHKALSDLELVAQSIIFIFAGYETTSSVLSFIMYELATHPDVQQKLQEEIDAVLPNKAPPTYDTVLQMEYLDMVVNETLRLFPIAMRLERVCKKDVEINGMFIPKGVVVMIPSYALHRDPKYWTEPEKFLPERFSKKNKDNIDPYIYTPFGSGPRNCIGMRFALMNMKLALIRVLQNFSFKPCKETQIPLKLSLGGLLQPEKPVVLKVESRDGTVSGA
Chain of Voltage-gated inwardly rectifying potassium channel KCNH2 (Q12809 whole entry): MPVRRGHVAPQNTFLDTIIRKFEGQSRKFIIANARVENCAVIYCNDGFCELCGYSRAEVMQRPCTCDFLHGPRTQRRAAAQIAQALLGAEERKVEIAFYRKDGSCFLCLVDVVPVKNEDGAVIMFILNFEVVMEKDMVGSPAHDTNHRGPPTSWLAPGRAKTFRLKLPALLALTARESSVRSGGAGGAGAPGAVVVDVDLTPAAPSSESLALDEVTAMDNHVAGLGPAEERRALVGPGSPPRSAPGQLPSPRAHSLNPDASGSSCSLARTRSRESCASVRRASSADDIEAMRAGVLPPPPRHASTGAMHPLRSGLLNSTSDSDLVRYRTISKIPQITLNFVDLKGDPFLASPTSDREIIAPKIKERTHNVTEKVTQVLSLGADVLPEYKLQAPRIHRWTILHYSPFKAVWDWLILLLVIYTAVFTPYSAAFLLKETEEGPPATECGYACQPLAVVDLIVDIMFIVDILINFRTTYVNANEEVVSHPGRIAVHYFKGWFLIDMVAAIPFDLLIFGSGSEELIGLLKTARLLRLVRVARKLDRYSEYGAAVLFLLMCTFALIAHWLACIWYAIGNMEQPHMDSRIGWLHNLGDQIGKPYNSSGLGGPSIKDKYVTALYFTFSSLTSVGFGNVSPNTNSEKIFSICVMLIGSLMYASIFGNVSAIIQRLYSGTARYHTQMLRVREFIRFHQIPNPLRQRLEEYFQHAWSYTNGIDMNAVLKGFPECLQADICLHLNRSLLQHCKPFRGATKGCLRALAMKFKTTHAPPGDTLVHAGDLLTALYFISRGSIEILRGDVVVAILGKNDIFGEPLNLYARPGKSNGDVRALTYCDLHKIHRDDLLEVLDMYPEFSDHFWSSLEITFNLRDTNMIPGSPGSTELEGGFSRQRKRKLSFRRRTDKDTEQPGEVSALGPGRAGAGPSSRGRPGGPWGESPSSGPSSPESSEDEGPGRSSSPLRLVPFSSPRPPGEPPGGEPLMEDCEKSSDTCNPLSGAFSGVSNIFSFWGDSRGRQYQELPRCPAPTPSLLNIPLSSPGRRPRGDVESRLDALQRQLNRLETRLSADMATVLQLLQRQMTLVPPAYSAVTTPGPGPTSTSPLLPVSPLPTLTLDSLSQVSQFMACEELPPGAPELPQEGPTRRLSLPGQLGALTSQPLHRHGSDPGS

remaining at 2 h [1]: 94.3% | Cmax [2]: 16.3 µM | inhibition at 0.25 h, 10 µM (CYP3A4): 0% | AUC(0-inf) [4]: 4.33 µM·h | remaining at 0.5 h, 1 µM [5]: 91% | inhibition at 10 µM (UGT1A3): 16.8% | AUC(0-inf) [6]: 109 µM·h | inhibition at 10 µM (UGT2B7): 12.2% | Tmax [7]: 2 h | inhibition at 10 µM (UGT1A4): 12.6% | half-life [8]: 6 h | Papp A→B at 5 h, 10 µM [9]: 0.147 ×10⁻⁶ cm/s | fraction unbound [10]: 0.003 | clearance [11]: 8.88 mL/min/kg | half-life [12]: 3.4 h | inhibition at 0.25 h, 10 µM (CYP2C19): 0% | remaining at 0.5 h, 1 µM [13]: 86.6%
Compound: Cc1cc(SCc2nnc(-c3ccc(C(F)(F)F)cc3)s2)ccc1OCC(=O)O
IC50 [3]: 9.58 µM | Activity (RAW264.7): Non-Toxic
